# According to patent publication US7378104B2, “Delivering substances to invertebrate organisms” (priority 2000, dated 2008):
# Values joined by “and” are separate entries in the source; they are usually repeats but may differ in a detail not shown here. Identical values can stand only once. Like-named read-outs stand apart in the source and are kept apart here. Marks after values point to notes of the source that are not given here.
# Experiments:
# Threehorn Wartyback = tested on: Threehorn Wartyback; parameters: unit not given here; settings: Threehorn Wartyback 30-50 mm; cited from earlier work
# Zebra Mussel = settings: cited from earlier work
# Zebra mussels [1] = assay: Experiment 8: Batch 7 particles versus KCl in beakers; type: in vivo, Dreissena polymorpha; settings: for No. of live mussels in each pot: 1.15 g KCl
# Procedure: A batch of particles (“Batch 7”) was manufactured by a fluidised bed coating method. 98 μm KCl particles were passed through a 350 μm sieve with 1% silica to help fluidisation. 800 g of solids were sprayed with palmitic acid (MP 61° C.) for 20 minutes at approximately 12 ml min^−1. 400 g of the resulting solids were then further coated with palmitic acid to finally produce particles containing between 20 and 25% wt of KCl.
# 40 1-litre beakers were filled with 500 ml of tap water and aerated overnight in a temperature controlled room at 25° C. Ten large Zebra mussels were placed into each beaker, attempting to keep a similar size range in all. Five different treatments were applied (such that each had eight replicates); • 1. 5 g of (Batch 7) was added. • 2. 0.5 g of (Batch 7) was added. • 3. 0.05 g of (Batch 7) was added. • 4. 5 g of Palmitic acid alone was added. • 5. 1.15 g of KCl (the same amount by mass as in 5 g of Batch 7) was added.
# Each treatment substance was thoroughly stirred into each beaker and aeration continued for the duration of the experiment. At reasonably regular intervals, the number of dead mussels (as indicated by gape) were counted in each pot, before being removed and measured. This was continued until most were dead, or 72 hours had elapsed.
# Zebra mussels [2] = assay: Experiment 1: toxicity of different masses of KCl to Zebra mussels over two days; type: in vivo, Dreissena polymorpha
# Procedure: The toxicity of KCl alone to Zebra mussels is illustrated in Table 1 below, which gives the results of the following experiment:
# 1) A series of pots where filled with 20 ml of distilled water plus a specified mass of KCl crystals, ground to less than 53 microns. The masses of KCl were chosen to represent the total amount of KCl that would be ingested by a mussel filtering 1 litre of water per day.
# 2) One mussel was placed in each pot (it was assumed that the mussel would continuously re-filter the limited amount of solution in the pot and thus ingest the required amount of KCl.
# Channel Catfish = Channel Catfish 0.8-1.2 g; cited from earlier work
# Zebra mussels [3] = type: in vivo, Dreissena polymorpha; settings: Mass of toxin 100 mg
# Text: The toxicity of an alternative toxin was also investigated and compared with that of KCl.
# Rainbow Trout = Rainbow Trout 0.8-1.2 g; cited from earlier work
smiles,measurement,setting,value
"[Cl-].[K+] [KCl, potassium chloride]",48-hour LC50,Threehorn Wartyback,>2000^a
same,48-hour LC50,Zebra Mussel; Zebra Mussel 5-8 mm,147 µg/mL
same,48-hour LC50,Zebra Mussel; Zebra Mussel 20-25 mm,150 µg/mL
same,No. of live mussels in each pot,Zebra mussels [1]; 0.5 hrs,10
same,No. of live mussels in each pot,Zebra mussels [1]; 1 hrs,10 and 9
same,No. of live mussels in each pot,Zebra mussels [1]; 1.5 hrs,10 and 9
same,No. of live mussels in each pot,Zebra mussels [1]; 2 hrs,10 and 9 and 7
same,No. of live mussels in each pot,Zebra mussels [1]; 3 hrs,9 and 8 and 7 and 10
same,No. of live mussels in each pot,Zebra mussels [1]; 3.5 hrs,9 and 8 and 7 and 6
same,No. of live mussels in each pot,Zebra mussels [1]; 4.5 hrs,8 and 7 and 5 and 6 and 9
same,No. of live mussels in each pot,Zebra mussels [1]; 5 hrs,7 and 6 and 4 and 5 and 8
same,No. of live mussels in each pot,Zebra mussels [1]; 6 hrs,6 and 4 and 5 and 7
same,No. of live mussels in each pot,Zebra mussels [1]; 7.5 hrs,6 and 4 and 3 and 5
same,mortality,"Zebra mussels [1]; 1.15 g of KCl, especially over the first 8 hours",rapid mortality
same,state of mussel,"Zebra mussels [2]; 0.1 mg KCl, 17/03/99 16:30",Alive
same,state of mussel,"Zebra mussels [2]; 0.1 mg KCl, 18/03/99 11:30",Alive
same,state of mussel,"Zebra mussels [2]; 0.1 mg KCl, 18/03/99 13:30",Alive
same,state of mussel,"Zebra mussels [2]; 0.1 mg KCl, 19/03/99 16:00",Alive
same,state of mussel,"Zebra mussels [2]; 0.5 mg KCl, 17/03/99 16:30",Alive
same,state of mussel,"Zebra mussels [2]; 0.5 mg KCl, 18/03/99 11:30",Alive
same,state of mussel,"Zebra mussels [2]; 0.5 mg KCl, 18/03/99 13:30",Closed
same,state of mussel,"Zebra mussels [2]; 0.5 mg KCl, 19/03/99 16:00",Alive
same,state of mussel,"Zebra mussels [2]; 1 mg KCl, 17/03/99 16:30",Alive
same,state of mussel,"Zebra mussels [2]; 1 mg KCl, 18/03/99 11:30",Alive
same,state of mussel,"Zebra mussels [2]; 1 mg KCl, 18/03/99 13:30",Alive
same,state of mussel,"Zebra mussels [2]; 1 mg KCl, 19/03/99 16:00",Alive
same,state of mussel,"Zebra mussels [2]; 5 mg KCl, 17/03/99 16:30",Alive
same,state of mussel,"Zebra mussels [2]; 5 mg KCl, 18/03/99 11:30",Alive
same,state of mussel,"Zebra mussels [2]; 5 mg KCl, 18/03/99 13:30",Alive
same,state of mussel,"Zebra mussels [2]; 5 mg KCl, 19/03/99 16:00",Alive
same,state of mussel,"Zebra mussels [2]; 10 mg KCl, 17/03/99 16:30",Alive
same,state of mussel,"Zebra mussels [2]; 10 mg KCl, 18/03/99 11:30",Alive
same,state of mussel,"Zebra mussels [2]; 10 mg KCl, 18/03/99 13:30",Closed
same,state of mussel,"Zebra mussels [2]; 10 mg KCl, 19/03/99 16:00",Dead
same,state of mussel,"Zebra mussels [2]; 25 mg KCl, 17/03/99 16:30",Alive
same,state of mussel,"Zebra mussels [2]; 25 mg KCl, 18/03/99 11:30",Dead
same,state of mussel,"Zebra mussels [2]; 25 mg KCl, 18/03/99 13:30",Dead
same,state of mussel,"Zebra mussels [2]; 25 mg KCl, 19/03/99 16:00",Dead
same,state of mussel,"Zebra mussels [2]; 50 mg KCl, 17/03/99 16:30",Alive
same,state of mussel,"Zebra mussels [2]; 50 mg KCl, 18/03/99 11:30",Dead
same,state of mussel,"Zebra mussels [2]; 50 mg KCl, 18/03/99 13:30",Dead
same,state of mussel,"Zebra mussels [2]; 50 mg KCl, 19/03/99 16:00",Dead
same,effectiveness of KCl alone over the test period,Zebra mussels [2]; lower concentrations,not effective
same,48-hour LC50,Channel Catfish,720 µg/mL
same,Time for mortality of all mussels,Zebra mussels [3],8 h
same,mortality,Zebra mussels [3]; at 8 hours,60%
same,48-hour LC50,Rainbow Trout,1610 µg/mL
